According to patent US20240158446A1, “CYCLIC COMPOUND HAVING SELECTIVE INHIBITORY ACTION ON KRAS OVER HRAS AND NRAS” (CHUGAI SEIYAKU KABUSHIKI KAISHA, priority 2021, published 2024):

Columns and labels:
[1] = biological target: GDP-bound NRAS wild-type protein (Homo sapiens, UniProt P01111); assay: Binding to NRAS by surface plasmon resonance (SPR), Single Cycle Kinetics; conditions: for NRAS/KRAS (ratio of KD value with respect to GDP-bound NRAS wild-type protein to KD value with respect to KRAS): SPR KD ratio NRAS/KRAS, class symbols
[2] = biological target: GDP-bound HRAS wild-type protein (Homo sapiens, UniProt P01112); assay: Binding to HRAS by surface plasmon resonance (SPR), Single Cycle Kinetics; conditions: for HRAS/KRAS (ratio of KD value with respect to GDP-bound HRAS wild-type protein to KD value with respect to KRAS): SPR KD ratio HRAS/KRAS, class symbols
[3] = SPR, GDP-bound NRAS wild-type protein vs GDP-bound KRAS wild-type protein
[4] = SPR, GDP-bound HRAS wild-type protein vs GDP-bound KRAS wild-type protein

Chain of GDP-bound NRAS wild-type protein (P01111 whole entry): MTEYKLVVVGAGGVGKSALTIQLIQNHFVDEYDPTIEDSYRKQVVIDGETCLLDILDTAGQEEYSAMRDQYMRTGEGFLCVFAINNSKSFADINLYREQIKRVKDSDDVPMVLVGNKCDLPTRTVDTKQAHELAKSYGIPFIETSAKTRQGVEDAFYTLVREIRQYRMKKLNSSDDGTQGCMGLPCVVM
Chain of GDP-bound HRAS wild-type protein (P01112 whole entry): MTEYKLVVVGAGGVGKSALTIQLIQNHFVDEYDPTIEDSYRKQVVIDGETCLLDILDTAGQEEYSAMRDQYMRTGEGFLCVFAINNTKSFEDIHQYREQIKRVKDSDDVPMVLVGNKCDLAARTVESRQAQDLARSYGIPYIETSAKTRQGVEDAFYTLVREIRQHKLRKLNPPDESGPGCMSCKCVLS

| Compound | NRAS/KRAS (ratio of KD value with respect to GDP-bound NRAS wild-type protein to KD value with respect to KRAS) [1] | HRAS/KRAS (ratio of KD value with respect to GDP-bound HRAS wild-type protein to KD value with respect to KRAS) [2] | NRAS/KRAS (ratio of KD value for NRAS to KD value for KRAS) [1, 3] | HRAS/KRAS (ratio of KD value for HRAS to KD value for KRAS) [2, 4] | other results |
| --- | --- | --- | --- | --- | --- |
| CCO[C@@H]1C[C@H]2C(=O)NC3(CC(C)(C)C3)C(=O)N(C)[C@@H](CC(C)(C)C)C(=O)N(C)[C@H](C(=O)N(C)C)CC(=O)N(C)[C@@H](COC)C(=O)N[C@@H]([C@@H](C)CC)C(=O)N(C3CC3)CC(=O)N(C)[C@H]3C/C=C\CCN(C3=O)[C@@H](Cc3ccc(C(F)(F)F)cc3)C(=O)N(C)CC(=O)N[C@@H](CCc3ccc(Cl)c(Cl)c3)C(=O)N2C1 [PP2750] | AA (a compound having 20 or more is denoted as AA) | A (a compound having 10 or more and less than 20 is denoted as A) |  |  |  |
| CCC[C@H]1C(=O)N[C@@H]([C@@H](C)CC)C(=O)N(C2CC2)CC(=O)N(C)[C@H]2C/C=C\CCN(C2=O)[C@@H](Cc2ccc(C)cc2)C(=O)N(C)CC(=O)N[C@@H](CCc2ccc(Cl)c(Cl)c2)C(=O)N2C[C@H](OCC)C[C@H]2C(=O)NC2(CC(C)(C)C2)C(=O)N(C)[C@@H](CC2CC2)C(=O)N(C)[C@H](C(=O)N(C)C)CC(=O)N1C [PP2805] | A (a compound having 10 or more and less than 20 is denoted as A) | A (a compound having 10 or more and less than 20 is denoted as A) |  |  |  |
| CCC[C@H]1C(=O)N[C@@H]([C@@H](C)CC)C(=O)N(C)CC(=O)N(C)[C@H]2C/C=C\CCN(C2=O)[C@@H](Cc2ccc(C)cc2)C(=O)N(C)CC(=O)N[C@@H](CCc2ccc(C(F)(F)F)c(OC)c2)C(=O)N2CC3(CC3)C[C@H]2C(=O)NC2(CC(C)(C)C2)C(=O)N(C)[C@@H](CC(C)(C)C)C(=O)N(C)[C@H](C(=O)N(C)C)CC(=O)N1C [PP3009] |  |  | A (a compound having 10 or more and less than 20 is denoted as A) | A (a compound having 10 or more and less than 20 is denoted as A) |  |
| CCCOC[C@H]1C(=O)N[C@@H]([C@@H](C)CC)C(=O)N(C)CC(=O)N(C)[C@H]2C/C=C\CCN(C2=O)[C@@H](Cc2ccc(C)cc2)C(=O)N(C)CC(=O)N[C@@H](CCc2cc(F)c(C(F)(F)F)c(F)c2)C(=O)N2C[C@H](OCC)C[C@H]2C(=O)NC2(CC(C)(C)C2)C(=O)N(C)[C@@H](C2CCCC2)C(=O)N(C)[C@H](C(=O)N(CC)CC)CC(=O)N1C [PP1578] |  |  |  |  | NRAS/KRAS (ratio of KD value for NRAS to KD value for KRAS) ([1]; SPR, GDP-bound NRAS wild-type protein vs GDP-bound KRAS wild-type protein, KD ratio class): A (a compound having 10 or more and less than 20 is denoted as A); HRAS/KRAS (ratio of KD value for HRAS to KD value for KRAS) ([2]; SPR, GDP-bound HRAS wild-type protein vs GDP-bound KRAS wild-type protein, KD ratio class): A (a compound having 10 or more and less than 20 is denoted as A) |
| CCCN1C(=O)CN(C)C(=O)CN(C)C(=O)[C@H]([C@@H](C)CC)NC(=O)[C@@H]2CCCCOc3ccc(cc3)C[C@H]1C(=O)N(C)CC(=O)N[C@@H](CCc1cc(F)c(C(F)(F)F)c(F)c1)C(=O)N1C[C@H](OCC)C[C@H]1C(=O)NC1(CCCC1)C(=O)N(C)[C@@H](C1CCCC1)C(=O)N(C)[C@H](C(=O)N(C)C)CC(=O)N2C [PP0894] |  |  | C (A compound having a KD ratio of 0.1 or more and less than 3 is denoted as C) | C (A compound having a KD ratio of 0.1 or more and less than 3 is denoted as C) |  |
| CCO[C@@H]1C[C@H]2C(=O)NC3(CCC3)C(=O)N(C)[C@@H](C3CCCC3)C(=O)N(C)[C@H](C(=O)N(C)C)CC(=O)N(C)[C@@H](CC(C)C)C(=O)N[C@@H]([C@@H](C)CC)C(=O)N(C)CC(=O)N(C)[C@H]3C[C@@H](C)CCN(C3=O)[C@@H](Cc3ccc(C(F)(F)F)cc3)C(=O)N(C)CC(=O)N[C@@H](CCc3cc(F)c(C(F)(F)F)c(F)c3)C(=O)N2C1 [PP1018] |  |  | C (A compound having a KD ratio of 0.1 or more and less than 3 is denoted as C) | B (a compound having 3 or more and less than 10 is denoted as B) |  |
| CC[C@H](C)[C@@H]1NC(=O)[C@H](CC(C)C)N(C)C(=O)C[C@@H](C(=O)N2CCOCC2)N(C)C(=O)[C@H](C2CCCC2)N(C)C(=O)[C@](C)(CC)NC(=O)[C@@H]2CCCN2C(=O)[C@H](CCc2cc(F)c(C(F)(F)F)c(F)c2)NC(=O)CN(C)C(=O)[C@H](Cc2ccc(C(F)(F)F)cc2)N2CCCCC[C@@H](C2=O)N(C)C(=O)CN(C)C1=O [PP0500] |  |  |  |  | NRAS/KRAS (ratio of KD value with respect to NRAS to KD value with respect to KRAS) [1, 3]: B (a compound having 3 or more and less than 10 is denoted as B); HRAS/KRAS (ratio of KD value with respect to HRAS to KD value with respect to KRAS) [2, 4]: B (a compound having 3 or more and less than 10 is denoted as B) |
| CCO[C@@H]1C[C@H]2C(=O)NC3(CCC3)C(=O)N(C)[C@@H](C3CCCC3)C(=O)N(C)[C@H](C(=O)N(C)CC)CC(=O)N(C)[C@@H](CC3CCC3)C(=O)N[C@@H]([C@@H](C)CC)C(=O)N(C)CC(=O)N(C)[C@H]3C/C=C\CCN(C3=O)[C@@H](Cc3ccc(C(F)(F)F)cc3)C(=O)N(C)CC(=O)N[C@@H](CCc3ccc(Cl)c(Cl)c3)C(=O)N2C1 [PP2824] | A (a compound having 10 or more and less than 20 is denoted as A) | A (a compound having 10 or more and less than 20 is denoted as A) |  |  |  |
